Results published in US12344603B2 (Genentech, Inc., priority 2020, dated 2025).
Counter-ions that a name gives are not always drawn.

target: IRE1α (Homo sapiens (Human), UniProt O75460, D688N); assay: IRE1α TR-FRET competition binding assay (IRE1α HTRF); settings: TR-FRET competition binding to kinase domain of IRE1α
Summary of the method: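 Kinase domain (0.25 nM) pre-bound to 2 nM Eu anti-His antibody for 1 h at 4° C in HEPES pH 7.5/MgCl2/Brij 35/DTT/gamma globulin buffer, then mixed with compounds and 2 nM Alexa 647 ATP-competitive probe. 1 h at room temperature; probe displacement read as TR-FRET (Ex 347 nm, Em 665/615 nm).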

Sequence of IRE1α (O75460 547-977 D688N): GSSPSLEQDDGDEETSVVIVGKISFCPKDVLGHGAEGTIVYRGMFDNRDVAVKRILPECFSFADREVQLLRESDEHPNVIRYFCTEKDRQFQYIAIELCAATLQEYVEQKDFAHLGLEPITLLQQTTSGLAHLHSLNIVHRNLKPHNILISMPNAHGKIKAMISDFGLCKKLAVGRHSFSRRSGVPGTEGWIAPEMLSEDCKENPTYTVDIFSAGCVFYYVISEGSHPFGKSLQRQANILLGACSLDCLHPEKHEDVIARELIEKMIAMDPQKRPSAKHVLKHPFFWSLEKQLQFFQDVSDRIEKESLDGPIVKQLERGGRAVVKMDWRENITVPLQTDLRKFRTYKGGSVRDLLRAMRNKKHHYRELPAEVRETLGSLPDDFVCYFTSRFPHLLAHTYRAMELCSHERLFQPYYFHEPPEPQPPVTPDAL

IC50 [nM] | Compound
0.8 | CCCS(=O)(=O)Nc1ccc(-c2nc3cnc(N[C@@H]4CNC[C@@H](F)C4)nc3n(C(C)C)c2=O)cc1F [Compound 82, N-[2-Fluoro-4-[2-[[(3S,5S)-5-fluoro-3-piperidyl]amino]-8-isopropyl-7-oxo-pteridin-6-yl]phenyl]propane-1-sulfonamide]
0.2 | CC(C)n1c(=O)c(-c2ccc(NS(=O)(=O)Cc3ccccc3C#N)c(F)c2)nc2cnc(N[C@@H]3CNC[C@@H](F)C3)nc21 [Compound 80, 1-(2-Cyanophenyl)-N-[2-fluoro-4-[2-[[(3S,5S)-5-fluoro-3-piperidyl]amino]-8-isopropyl-7-oxo-pteridin-6-yl]phenyl]methanesulfonamide]
0.2 | Cc1nc(NS(=O)(=O)c2ccccc2C#N)ccc1-c1nc2cnc(N[C@H]3CC[C@H](N(C)C)CC3)nc2n(C(C)C)c1=O [Example 255, N-[5-[2-[[4-(Dimethylamino)cyclohexyl]amino]-8-isopropyl-7-oxo-pteridin-6-yl]-6-methyl-2-pyridyl]-2-cyano-benzenesulfonamide]
0.14 | CCN(C)[C@H]1CC[C@H](Nc2ncc3cc(-c4ccc(NS(=O)(=O)CCC(F)(F)F)c(F)c4)c(=O)n(C(C)C)c3n2)CC1 [Compound 205, N-(4-(2-(((1,4-trans)-4-(Ethyl(methyl)amino)cyclohexyl)amino)-8-isopropyl-7-oxo-7,8-dihydropyrido[2,3-d]pyrimidin-6-yl)-2-fluorophenyl)-3,3,3-trifluoropropane-1-sulfonamide]
1 | CC(C)n1c(=O)c(-c2ccc(NS(=O)(=O)CCC(F)F)c(F)c2)nc2cnc(N[C@@H]3CNC[C@H](CF)C3)nc21 [Compound 78, 3,3-Difluoro-N-[2-fluoro-4-[2-[[(3S,5R)-5-(fluoromethyl)-3-piperidyl]amino]-8-isopropyl-7-oxo-pteridin-6-yl]phenyl]propane-1-sulfonamide]
0.21 | CC(C)n1c(=O)c(-c2cc(F)c(NS(=O)(=O)Cc3cccc(C#N)c3)c(F)c2F)cc2cnc(N[C@@H]3CNC[C@@H](F)C3)nc21 [Compound 30, 1-(3-Cyanophenyl)-N-(2,3,6-trifluoro-4-(2-(((3S,5S)-5-fluoropiperidin-3-yl)amino)-8-isopropyl-7-oxo-7,8-dihydropyrido[2,3-d]pyrimidin-6-yl)phenyl)methanesulfonamide]
0.27 | CC(C)n1c(=O)c(-c2ccc(NS(=O)(=O)Cc3ccccc3F)cn2)cc2cnc(N[C@H]3CC[C@H](N(C)C)CC3)nc21 [Compound 94, N-(6-(2-(((1r,4r)-4-(Dimethylamino)cyclohexyl)amino)-8-isopropyl-7-oxo-7,8-dihydropyrido[2,3-d]pyrimidin-6-yl)pyridin-3-yl)-1-(2-fluorophenyl)methanesulfonamide]
8.5 | CC(C)n1c(=O)c(-c2cc(F)c(NS(=O)(=O)Cc3ccccc3F)c(F)c2F)cc2cnc(N[C@H]3CNC[C@@H](O)C3)nc21 [Compound 88, 1-(2-Fluorophenyl)-N-(2,3,6-trifluoro-4-(2-(((3R,5S)-5-hydroxypiperidin-3-yl)amino)-8-isopropyl-7-oxo-7,8-dihydropyrido[2,3-d]pyrimidin-6-yl)phenyl)methanesulfonamide]
0.22 | CCn1c(=O)c(-c2cc(F)c(NS(=O)(=O)Cc3ccc(C(F)(F)F)cc3)c(F)c2F)cc2cnc(N[C@@H]3CNC[C@@H](F)C3)nc21 [Compound 50, N-(4-(8-ethyl-2-(((3S,5S)-5-fluoropiperidin-3-yl)amino)-7-oxo-7,8-dihydropyrido[2,3-d]pyrimidin-6-yl)-2,3,6-trifluorophenyl)-1-(4-(trifluoromethyl)phenyl)methanesulfonamide hydrochloride]
0.15 | CC(C)n1c(=O)c(-c2ccc(NS(=O)(=O)CCC(F)(F)F)c(F)c2)nc2cnc(N[C@@H]3CC[C@@H](N(C)C)[C@H](F)C3)nc21 (stereo in doubt) [Compound 179B, N-(4-(2-((4-(Dimethylamino)-3-fluorocyclohexyl)amino)-8-isopropyl-7-oxo-7,8-dihydropteridin-6-yl)-2-fluorophenyl)-3,3,3-trifluoropropane-1-sulfonamide]
16 | CC(C)n1c(=O)c(-c2cc(NS(=O)(=O)CCC(F)(F)F)nn2C)cc2cnc(N[C@@H]3CNC[C@@H](F)C3)nc21 [Compound 85]
0.18 | CC(C)n1c(=O)c(-c2ccc(NS(=O)(=O)CCC(F)(F)F)c(F)c2)nc2cnc(N[C@H]3CC[C@H](N(C)C)CC3)nc21 [Compound 67, N-(4-(2-(((1r,4r)-4-(Dimethylamino)cyclohexyl)amino)-8-isopropyl-7-oxo-7,8-dihydropteridin-6-yl)-2-fluorophenyl)-3,3,3-trifluoropropane-1-sulfonamide]
0.24 | CC(C)n1c(=O)c(-c2ccc(NS(=O)(=O)CCC(F)(F)F)c(F)c2)nc2cnc(N[C@H]3CC[C@H](N(C)CCF)CC3)nc21 [Compound 177, 3,3,3-Trifluoro-N-(2-fluoro-4-(2-(((1r,4r)-4-((2-fluoroethyl)(methyl)amino)cyclohexyl)amino)-8-isopropyl-7-oxo-7,8-dihydropteridin-6-yl)phenyl)propane-1-sulfonamide]
0.1 | CC(C)n1c(=O)c(-c2cc(F)c(NS(=O)(=O)CC3(C(F)(F)F)CC3)c(F)c2)nc2cnc(N[C@H]3CC[C@H](N(C)C)CC3)nc21 [Example 240, N-[4-[2-[[4-(Dimethylamino)cyclohexyl]amino]-8-isopropyl-7-oxo-pteridin-6-yl]-2,6-difluoro-phenyl]-1-[1-(trifluoromethyl)cyclopropyl]methanesulfonamide]
0.43 | Cc1nc(NS(=O)(=O)c2ccccc2Cl)ccc1-c1cc2cnc(N[C@H]3CC[C@H](N(C)C)CC3)nc2n(C(C)C)c1=O [Compound 135, 2-Chloro-N-(5-(2-(((1r,4r)-4-(dimethylamino)cyclohexyl)amino)-8-isopropyl-7-oxo-7,8-dihydropyrido[2,3-d]pyrimidin-6-yl)-6-methylpyridin-2-yl)benzenesulfonamide]
0.14 | CC(C)n1c(=O)c(-c2ccc(NS(=O)(=O)CCC(F)(F)F)c(F)c2)cc2cnc(N[C@H]3CC[C@H](N4CCOCC4)CC3)nc21 [Compound 213, 3,3,3-Trifluoro-N-(2-fluoro-4-(8-isopropyl-2-(((1,4-trans)-4-morpholinocyclohexyl)amino)-7-oxo-7,8-dihydropyrido[2,3-d]pyrimidin-6-yl)phenyl)propane-1-sulfonamide]
0.09 | CC(C)n1c(=O)c(-c2ccc(NS(=O)(=O)Cc3ccccc3)c(F)c2)nc2cnc(N[C@@H]3CC[C@@H](N(C)C)[C@H](F)C3)nc21 (stereo in doubt) [Compound 192B, N-(4-(2-((4-(Dimethylamino)-3-fluorocyclohexyl)amino)-8-isopropyl-7-oxo-7,8-dihydropteridin-6-yl)-2-fluorophenyl)-1-phenylmethanesulfonamide]
0.26 | CC(C)n1c(=O)c(-c2cc(F)c(NS(=O)(=O)Cc3ccc(F)cc3)cc2F)nc2cnc(N[C@H]3CC[C@H](N(C)C)CC3)nc21 [Compound 174, N-(4-(2-(((1r,4r)-4-(Dimethylamino)cyclohexyl)amino)-8-isopropyl-7-oxo-7,8-dihydropteridin-6-yl)-2,5-difluorophenyl)-1-(4-fluorophenyl)methanesulfonamide hydrochloride]
1.4 | CC(C)n1c(=O)c(-c2cc(F)c(NC(=O)C3CC3)c(F)c2F)cc2cnc(N[C@H]3CC[C@H](N(C)C)CC3)nc21 [Compound 37, N-(4-(2-(((1r,4r)-4-(Dimethylamino)cyclohexyl)amino)-8-isopropyl-7-oxo-7,8-dihydropyrido[2,3-d]pyrimidin-6-yl)-2,3,6-trifluorophenyl)cyclopropanecarboxamide]
0.48 | Cc1cccc(S(=O)(=O)Nc2ccc(-c3cc4cnc(N[C@H]5CC[C@H](N(C)C)CC5)nc4n(C(C)C)c3=O)c(C)n2)c1F [Compound 137, N-(5-(2-(((1r,4r)-4-(Dimethylamino)cyclohexyl)amino)-8-isopropyl-7-oxo-7,8-dihydropyrido[2,3-d]pyrimidin-6-yl)-6-methylpyridin-2-yl)-2-fluoro-3-methylbenzenesulfonamide]
0.23 | CC(C)n1c(=O)c(-c2ccc(NS(=O)(=O)Cc3ccc(F)cc3)c(F)c2)cc2cnc(N[C@H]3CC[C@H](N(C)CCF)CC3)nc21 [Compound 155, N-(2-Fluoro-4-(2-(((1r,4r)-4-((2-fluoroethyl)(methyl)amino)cyclohexyl)amino)-8-isopropyl-7-oxo-7,8-dihydropyrido[2,3-d]pyrimidin-6-yl)phenyl)-1-(4-fluorophenyl)methanesulfonamide]
0.2 | CC(C)n1c(=O)c(-c2cc(F)c(NS(=O)(=O)CC(F)(F)CC3CC3)c(F)c2)nc2cnc(N[C@H]3CC[C@H](N(C)C)CC3)nc21 [Example 248, 3-Cyclopropyl-N-[4-[2-[[4-(dimethylamino)cyclohexyl]amino]-8-isopropyl-7-oxo-pteridin-6-yl]-2,6-difluoro-phenyl]-2,2-difluoro-propane-1-sulfonamide]
1 | Cc1nc(NS(=O)(=O)Cc2ccc(F)cc2)ccc1-c1nc2cnc(N[C@H]3CC[C@H](N(C)C)CC3)nc2n(C(C)C)c1=O [Example 252, N-[5-[2-[[4-(Dimethylamino)cyclohexyl]amino]-8-isopropyl-7-oxo-pteridin-6-yl]-6-methyl-2-pyridyl]-1-(4-fluorophenyl)methanesulfonamide]
0.43 | CC(C)n1c(=O)c(-c2ccc(NS(=O)(=O)N(C)C)c(F)c2)nc2cnc(N[C@@H]3CNC[C@@H](F)C3)nc21 [Compound 164, 6-(4-(Dimethylsulfamoylamino)-3-fluoro-phenyl)-2-(((3S,5S)-5-fluoro-3-piperidyl)amino)-8-isopropyl-7-oxo-pteridine]

Compound | IC50 [nM]
N-(2,3,6-trifluoro-4-(8-isopropyl-2-((4-((2-methoxyethyl)(methyl)amino)cyclohexyl)amino)-7-oxo-7,8-dihydropyrido[2,3-d]pyrimidin-6-yl)phenyl)propane-1-sulfonamide [Compound 101B] | 120
